{
  "source": "patent US20210046124A1",
  "about": "“HUMAN FUNCTIONAL CORNEAL ENDOTHELIAL CELL AND APPLICATION THEREOF” (KYOTO PREFECTURAL PUBLIC UNIVERSITY CORPORATION, priority 2016, published 2021)",
  "format_in_all_cases": "cell-based, human",
  "key": {"cHCECs": {"tested_on": "cHCECs", "assay": "Phase contrast microscopy: morphology, cell area distribution, cultured cell density", "from_the_text": "Phase contrast microscope images were taken by an inverted microscope system (CKX41, Olympus, Tokyo, Japan). For the cell area distribution analysis, the cHCECs were washed with PBS (−) three times and the phase contrast images were acquired by a BZ X-700 Microscope system (Keyence, Osaka, Japan). The cell area distributions were quantified by BZ-H3C Hybrid cell count software (Keyence).\nPhase contrast images ware taken by an inverted microscope system (CKX41, Olympus, Tokyo, Japan). For the cell area distribution analysis, the cHCECs were washed with PBS (−) three times and phase contrast images were acquired by a BZ X700 Microscope system (Keyence, Osaka, Japan). The area distributions were quantified by BZ-H3C Hybrid cell count software (Keyence)."}, "cultured HCECs [1]": {"tested_on": "cultured HCECs", "assay": "Flow cytometry (FACS) of surface CD markers CD44, CD166, CD24, CD26, CD105 of cultured HCECs; E-ratio", "conditions": "for effect on the E-ratio: presence of the agent during culture", "from_the_text": "FIG. 68 is a diagram showing the method to estimate the content of effector (E-ratio) in a cultured cell population by FACS analysis. The gate is set as followings in measurements using PE-Cy7-labeled anti-human CD44 antibodies (BD Biosciences) and setting the Area Scaling Factor of Blue laser of FACS Canto II to 0.75 and voltage of PE-Cy7 to 495. First, fractions A, B, C, and D are set in the dot plot (top row left) where the X axis is CD24 and the Y axis is CD166. At this time, fraction A is CD24 negative and CD166 positive, fraction B is CD24 positive and CD166 positive, fraction C is CD24 negative and CD166 negative, and fraction D is CD24 positive and CD166 negative. The proportion of fraction B when target cells for analysis are 100% is considered the content of non-intended cell C [CD24 positive cell]. […] Further, a separate dot plot where the X axis is CD44 and the Y axis is CD26 is created and fractions a′, b′, c′, and d′ are set as in the diagram on the top row right side. The proportion of fraction B when the target cells of analysis is 100% is the non-intended cell B [CD26 positive cell] content.\nMethod of calculating the E-ratio: Typically, fluorescence intensities differ depending on the type of fluorescence of a label or equipment setting. In a measurement under the following condition: PE-Cy7-labeled anti-human CD44 antibody (BD Biosciences) is used and Area Scaling Factor of Blue laser of FACS Canto II is set to 0.75 and the voltage of PE-Cy 7 is set to 495, gates are set as follows: First, fractions A, B, C, and D are set in a dot plot (FIG. 68, top row left side) with X axis as CD24 and Y axis as CD166. At this time, fraction A is CD24 negative and CD166 positive, fraction B is CD24 positive and CD166 positive, fraction C is CD24 negative and CD166 negative, and fraction D is CD24 positive and CD166 negative. The proportion of fraction B, when target cells for analysis is 100%, is considered the content of non-intended cell C [CD24 positive cell]. […] Further, a separate dot plot where the X axis is CD44 and the Y axis is CD26 is created and fractions a′, b′, c′, and d′ are set as in the diagram on the top row right side of FIG. 68. The proportion of fraction B, when the target cell of analysis is 100%, is the non-intended cell B [CD26 positive cell] content (see FIG. 68).\nHCECs were collected from the culture dish by TrypLE Select treatment as described above and suspended at a concentration of 4×10^6 cells/mL in FACS buffer (PBS containing 1% BSA and 0.05% NaN3). An equal volume of antibody solution was added and incubated for 2 hours at 4.degrees. C. The antibody solutions comprised the following: FITC-conjugated anti-human CD26 mAb, PE-conjugated anti-human CD166 mAb, PerCP-Cy5.5 conjugated anti-human CD24 mAb, PE-Cy7-conjugated anti-human CD44 (all from BD Biosciences), and APC-conjugated anti-human CD105 (eBioscience, San Diego, Calif., USA). After washing with FACS buffer, the HCECs were analyzed with FACS Canto II (BD Biosciences)."}, "HCECs": {"tested_on": "HCECs", "assay": "Trichostatin A (TSA) treatment of HCECs", "conditions": "medium supplemented with 0.5 .micro.M Trichostatin A", "description": "HCECs with treated with Trichostatin A as follows. The Descemet's membranes with the corneal endothelial cells were stripped from donor corneas and digested at 37.degrees. C. with 1 mg/mL collagenase A (Roche Applied Science, Penzberg, Germany) for 2 hours. The HCECs obtained from a single donor cornea were seeded in one well of a Type I collagen-coated 6-well cell culture plate (Corning Inc., Corning, N.Y., USA). The Trichostatin A-containing medium was prepared with Opti-MEM-I (Life Technologies Corp., Carlsbad, Calif., USA), 8% fetal bovine serum (FBS), 5 ng/mL epidermal growth factor (EGF; Life Technologies), 20 .micro.g/mL ascorbic acid (Sigma-Aldrich Corp.), 200 mg/L calcium chloride (Sigma-Aldrich Corp., St. Louis, Mo., USA), 0.08% chondroitin sulfate (Wako Pure Chemical Industries, Ltd., Osaka, Japan), 50 .micro.g/mL of gentamicin, and 0.5 .micro.M of Trichostatin A. The HCECs were cultured using the Trichostatin A-containing medium at 37.degrees. C. in a humidified atmosphere containing 5% CO2. The culture medium was changed twice a week. The HCECs were subcultured at ratios of 1:3 using 10× TrypLE Select (Life Technologies) for 12 minutes at 37.degrees. C. when they reached confluence. The cells were cultured for 30 days. The HCECs from the second passage were used for observation with a fluorescence microscope."}, "cultured HCECs [2]": {"tested_on": "cultured HCECs", "assay": "Centrifugation cell attachment assay: coated Descemet's membrane components and cell suspension vehicles", "conditions": "for minimum concentration necessary for the observed cell binding: coating concentration; for binding / distribution of cultured HCECs in coated wells: U-bottomed 96-well plates coated with the component, 200×g for 2 minutes, Opti-MEM", "description": "Cell attachment to laminins, […], proteoglycans and glycoprotein was tested by the centrifugation cell attachment assay described previously (Friedlander et al., 1998. J. Cell Biol. 107: p 2329) with some modifications. Laminin-521, -511, -411, and -332 were purchased from Veritas (Tokyo, Japan). Perlecan, Agrin, Nidogen-1, TSP-1 and Fibulin 5 were purchased from R&D Systems (Minneapolis, Minn.). Type IV collagen was purchased from BD Biosciences (San Jose, Calif., USA).\nEach well of a U-shaped 96-well Maxisorp plate (Nunc) was coated with 40 .micro.l of laminin, collagen, proteoglycan or glycoprotein solution overnight at 4 degrees Celsius. The wells were washed three times with PBS (−) and blocked with 1% BSA in 0.1 M NaHCO3 (pH 8.0) for 1 hour at room temperature. The cultured HCECs were suspended in Opti-MEM, Opeguard-MA (Senju Pharmaceutical, Osaka, Japan) or BSS-Plus (Alcon Laboratories, Fort Worth, Tex., USA) at a concentration of 1×10^5 cells/mL, and 0.1 mL of the cell suspension was added to each well and incubated for 10 minutes. The plate was then centrifuged at 200×g for 2 minutes. The bright-field Z stack images were captured by a BZ-9000 microscope (Keyence, Osaka, Japan) at 2× objective magnification and omnifocal images were created from these images using BZ-II Analyzer software. In accordance with the description by Friedlander et al (Friedlander et al., 1998. J. Cell Biol. 107: p 2329), the cells were centrifuged into a pellet at the bottom of the well on non-adhesive substrates. As the adhesiveness of the substrate increased, more cells bound to the substrates along the wall of the well. Bond to the substrate is detected in a circular area with a measurable diameter at the bottom or the well. On strongly adhesive substrates, cells were distributed more or less uniformly on the well (Grumet M, Flaccus A, and Margolis R U. J. Cell Biol. 1993; 120:815-824).\nAs a method for assessing the attachment ability of HCECs, this Example performed a centrifugation cell attachment assay [Friedlander et al., 1998. J. Cell Biol. 107: p 2329] with some modification (FIG. 36). The cultured HCECs were detached from culture dishes as described in (Materials and Methods) and cell suspension was prepared at a concentration of 1×10^5 cells/ml. 100 .micro.l of the cell suspension was added to each well of the U-bottomed 96-well plates coated with laminin-511, laminin-411, Type IV collagen or other components of Descemet's membrane listed in Table 6. The plate was incubated for 10 minutes at room temperature and then centrifuged at 200×g for 2 minutes. The attached cells were assessed under a BZ-9000 microscope system as described in (Materials and Methods)."}, "[3]": {"conditions": "addition of Y-27632 during the culture for 47 days"}},
  "note": "Several values for one entry are separate records, joined by “and”; a condition that tells them apart may be missing. Identical values can stand only once. Entries after “also recorded” stand apart in the source; their conditions may differ. Counter-ions that a name gives are not always drawn.",
  "data": [
    {"compound": "C[C@@H](N)[C@H]1CC[C@H](C(=O)Nc2ccncc2)CC1", "note": "[Lot Y-27632, (R)-(+)-trans-(4-pyridyl)-4-(1-aminoethyl)-cyclohexanecarboxamide dihydrochloride monohydrate]", "values": [
      {"measurement": "average cell area", "setting": "cHCECs; [3]", "result": "216 .micro.m^2"},
      {"measurement": "cultured cell density", "setting": "cHCECs; [3]", "result": 2582, "unit": "cells/mm^2"},
      {"measurement": "E-ratios", "setting": "cultured HCECs [1]; Y-27632 added every three days throughout the entire culture period, TGF-beta signaling not inhibited, seeding density higher than 400 cells/mm^2", "result": "≥ 90", "unit": "%"},
      {"measurement": "improvement (E-ratio, increase in the proportion of intermediately differentiated corneal endothelial cells)", "setting": "cultured HCECs [1]; about 1 .micro.M", "result": "very little improvement"},
      {"measurement": "improvement (E-ratio, increase in the proportion of intermediately differentiated corneal endothelial cells)", "setting": "cultured HCECs [1]; about 5 .micro.M", "result": "little"},
      {"measurement": "improvement (E-ratio, increase in the proportion of intermediately differentiated corneal endothelial cells)", "setting": "cultured HCECs [1]; about 10 .micro.M or more", "result": "More of an effect"},
      {"measurement": "E-Ratio", "setting": "cultured HCECs [1]; addition of Y-27632 throughout 35 days of culture, 6th passage", "result": 52.3, "unit": "%"},
      {"measurement": "effect on the E-ratio", "setting": "cultured HCECs [1]", "result": "further improved the E-ratio"}
    ]},
    {"compound": "C[S+]([O-])c1ccc(-c2nc(-c3ccc(F)cc3)c(-c3ccncc3)[nH]2)cc1", "note": "(centres unmarked) [SB203580, 4-(4-fluorophenyl)-2-(4-methylsulfinylphenyl)-5-(4-pyridyl)-1H-imidazole]", "values": [
      {"measurement": "senescent form of cHCEC cultures", "setting": "cHCECs; inhibitor added to the entire culture, cultures a5, a1, a2", "result": "did not have any senescent form at first glance"}
    ]},
    {"compound": "CC(/C=C/C(=O)NO)=C\\[C@@H](C)C(=O)c1ccc(N(C)C)cc1", "note": "[Trichostatin A]", "values": [
      {"measurement": "effect on the E-ratio", "setting": "cultured HCECs [1]", "result": "improved the E-ratio"},
      {"measurement": "differentiation into mature cHCECs", "setting": "HCECs", "result": "can be promoted to differentiate into mature cHCECs"}
    ]},
    {"compound": "Agrin: purchased from R&D Systems, Descemet's membrane component", "values": [
      {"measurement": "minimum concentration necessary for the observed cell binding", "setting": "cultured HCECs [2]", "result": 400, "unit": "nM"}
    ]},
    {"compound": "Perlecan: purchased from R&D Systems, Descemet's membrane component", "values": [
      {"measurement": "minimum concentration necessary for the observed cell binding", "setting": "cultured HCECs [2]", "result": 400, "unit": "nM"}
    ]},
    {"compound": "TSP-1: purchased from R&D Systems, Descemet's membrane component", "values": [
      {"measurement": "minimum concentration necessary for the observed cell binding", "setting": "cultured HCECs [2]", "result": 400, "unit": "nM"}
    ]},
    {"compound": "laminin-332: laminin purchased from Veritas, coating protein", "values": [
      {"measurement": "binding / distribution of cultured HCECs in coated wells", "setting": "cultured HCECs [2]", "result": "formed a circular pellet"}
    ]},
    {"compound": "laminin-411: laminin purchased from Veritas, coating protein", "values": [
      {"measurement": "binding / distribution of cultured HCECs in coated wells", "setting": "cultured HCECs [2]", "result": "formed a circular pellet"},
      {"measurement": "minimum concentration necessary for the observed cell binding", "setting": "cultured HCECs [2]", "result": "1.25 nM and 2.85 .micro.g/mL"}
    ]},
    {"compound": "laminin-511: laminin purchased from Veritas, coating protein", "values": [
      {"measurement": "binding / distribution of cultured HCECs in coated wells", "setting": "cultured HCECs [2]", "result": "uniformly distributed; also recorded: concentration dependent manner"},
      {"measurement": "minimum concentration necessary for the observed cell binding", "setting": "cultured HCECs [2]", "result": "4 pM and 3 ng/mL"}
    ]},
    {"compound": "laminin-521: laminin purchased from Veritas, coating protein", "values": [
      {"measurement": "binding / distribution of cultured HCECs in coated wells", "setting": "cultured HCECs [2]", "result": "uniformly distributed; also recorded: concentration dependent manner"}
    ]}
  ]
}
